Experiment [1] concerns ds26 (DNA, duplex) CAATCGGATCGAATTCGATCCGATTG
The experiment in a line: CD titration. Particulars: K+ (100 mM potassium phosphate); 100 mM KPhos pH 7.4, 20 °C; 5 µM DNA; weak Ka seen by UV-visible.

Experiment [2] shares this test system. The experiment in a line: UV-visible titration. Particulars: K+ (100 mM potassium phosphate), 100 mM KPhos pH 7.4, ambient temperature, 10 µM ligand, apparent.

Molecules are shown by their SMILES.

Consider `C[n+]1ccc(-c2ccc3c(c2)CCc2cc(-c4cc[n+](C)cc4)ccc2/N=N/3)cc1`, for which the binding result in experiment [1] was “no”. Moreover, the Ka in experiment [2] (continuous 405 nm irradiation) is recorded as 2.44 × 10^3 M^–1.
Consider `C[n+]1ccc(-c2ccc3c(c2)CCc2cc(-c4cc[n+](C)cc4)ccc2/N=N\3)cc1`, for which, in experiment [2], the Ka was 2.53 × 10^3 M^–1.

The record behind these values is PMC12381718 (2025).
